Entries after “also recorded” stand apart in the source; their conditions may differ.
Assays:
[1] = Toxic signs (salivation) in rats after sciatic nerve injection; type: in vivo, Male Sprague-Dawley rats; conditions: co-injection of VTD with EPI
Experimental: Male Sprague-Dawley rats (200-250 g) were divided into 4 groups of 10 each. 0.1 ml of VTD alone at 0.2, 0.5 or 0.7 mM or vehicle (saline) was injected at the depression between the femoral head and the hip. The same animals were injected with VTD with epinephrine (EPI, 1:200,000) one week later, using the previously uninjected leg. Motor and sensory functions were rated by the respective monitoring of toe curling and/or foot dragging, and by testing the nocifensive withdrawal reflex to pinch of the foot pad of the injected hindlimb. Saline alone affected neither function.

rat sciatic nerve [2] = assay: Motor block of rat sciatic nerve in vivo (toe curling and/or foot dragging); parameters: species or system Male Sprague-Dawley rats
rat sciatic nerve [3] = assay: Sensory block of rat sciatic nerve in vivo (nocifensive withdrawal reflex to pinch of the foot pad); parameters: species or system Male Sprague-Dawley rats; conditions: 2%=74 mM

## CNC[C@H](O)c1ccc(O)c(O)c1 [EPI, epinephrine]
[1]
  Effect of EPI co-injection on VTD toxicity: decrease VTD-associated toxicity; also recorded: decreases the toxicity associated with higher concentrations of VTD

## CCCCN1CCCCC1C(=O)Nc1c(C)cccc1C (stereo not shown) [bupivacaine]
Rat sciatic nerve [2]; 0.75%=23 mM
  Motor blockade duration: 161 min
  Motor blockade onset: 4.8 min
  Motor blockade, % of rats tested: 86%
  Motor blockade, fraction of rats tested: 205/239

## CCN(CC)CC(=O)Nc1c(C)cccc1C [lidocaine]
Rat sciatic nerve [3]
  Sensory blockade duration: 78 min
  Sensory blockade onset: 1.3 min
  Sensory blockade, % of rats: 100%
  Sensory blockade, fraction of rats: 5/5
Rat sciatic nerve [2]; 2%=74 mM
  Motor blockade duration: 75 min
  Motor blockade onset: 1.9 min
  Motor blockade, % of rats: 96%
  Motor blockade, fraction of rats: 216/224

From patent publication US5288723A, “A composition and a method of using veratridine and epinephrine as a local anesthetic” (priority 1991, dated 1994)
